The target in experiment [1] is T1, human androgenic receptor (Homo sapiens, UniProt P10275).
T1 construct: host or cells: Saccharomyces cerevisiae
T1 sequence (P10275 1-920): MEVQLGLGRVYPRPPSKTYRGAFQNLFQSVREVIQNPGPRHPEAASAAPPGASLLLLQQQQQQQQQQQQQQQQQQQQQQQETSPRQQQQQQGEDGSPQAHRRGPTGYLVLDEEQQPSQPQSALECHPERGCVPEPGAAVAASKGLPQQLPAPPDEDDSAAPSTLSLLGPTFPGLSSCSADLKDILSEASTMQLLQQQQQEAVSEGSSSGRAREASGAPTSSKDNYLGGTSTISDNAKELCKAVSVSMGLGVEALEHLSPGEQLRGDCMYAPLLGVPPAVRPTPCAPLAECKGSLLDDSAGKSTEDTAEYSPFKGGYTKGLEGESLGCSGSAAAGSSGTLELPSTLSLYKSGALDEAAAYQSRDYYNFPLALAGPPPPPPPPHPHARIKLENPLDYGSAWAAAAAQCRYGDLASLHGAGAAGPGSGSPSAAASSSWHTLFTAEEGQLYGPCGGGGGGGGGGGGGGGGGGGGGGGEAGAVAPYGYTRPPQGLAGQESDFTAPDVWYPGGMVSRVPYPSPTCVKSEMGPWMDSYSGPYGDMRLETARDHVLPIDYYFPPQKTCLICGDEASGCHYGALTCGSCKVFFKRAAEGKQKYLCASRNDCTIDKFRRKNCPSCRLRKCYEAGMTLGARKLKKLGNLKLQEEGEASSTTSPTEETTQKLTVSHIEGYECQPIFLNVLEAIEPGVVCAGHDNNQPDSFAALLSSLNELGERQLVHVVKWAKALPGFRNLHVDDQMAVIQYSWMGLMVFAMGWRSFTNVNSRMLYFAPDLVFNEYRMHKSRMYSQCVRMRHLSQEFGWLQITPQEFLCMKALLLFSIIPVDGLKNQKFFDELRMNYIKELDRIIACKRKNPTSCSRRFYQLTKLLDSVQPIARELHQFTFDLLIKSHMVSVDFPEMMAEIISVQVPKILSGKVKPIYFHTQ
The experiment in a line: Yeast-based androgenic reporter assay, antagonistic. It is filed as cell-based. The conditions noted are these: in the presence of 5α-dihydrotestosterone. Here is the method: An endocrine bioassay kit (Xenometrix AG, Allschwil, Switzerland) was used to test for a potential residual androgenic activity of the selected agents. Genetically modified yeast cells (Saccharomyces cerevisiae) containing the human androgenic receptor gene integrated into a yeast chromosome, as well as an expression plasmid with the sequences of both the androgen responsive element and a lacZ reporter gene were cultured in humidified air at 31°C with agitation for 2 days. The appropriate concentrations of the test compounds and a CPRG substrate solution (chlorophenol red-β-D-galactopyranoside) for β-galactosidase were added into a 96-well microplate according to the instructions of the manufacturer. Androgen agonistic and antagonistic properties of the test compounds were determined by a colorimetric assay. For the antagonistic measurements the medium was supplemented with 5α-dihydrotestosterone (DHT). Once the reporter gene is expressed, β-galactosidase is secreted into the medium, and converts the yellow CPRG substrate into a red product, which can be quantified at 570 nm. Quantities of this red product correlate with the liberation of β-galactosidase, which is increased when an agonistic effect is present, while it is decreased when the test compound exerts an antagonistic effect. […]

Experiment [2] has as its target T1, human androgenic receptor. Nature of the experiment: Yeast-based androgenic reporter assay, agonistic. It is filed as cell-based. The conditions noted are these: read-out: Calculated EC50 values, androgenic activity.
Procedure: Genetically modified yeast cells (Saccharomyces cerevisiae) containing the human androgenic receptor gene integrated into a yeast chromosome, as well as an expression plasmid with the sequences of both the androgen responsive element and a lacZ reporter gene were cultured in humidified air at 31°C with agitation for 2 days. The appropriate concentrations of the test compounds and a CPRG substrate solution (chlorophenol red-β-D-galactopyranoside) for β-galactosidase were added into a 96-well microplate according to the instructions of the manufacturer. Androgen agonistic and antagonistic properties of the test compounds were determined by a colorimetric assay. For the antagonistic measurements the medium was supplemented with 5α-dihydrotestosterone (DHT). Once the reporter gene is expressed, β-galactosidase is secreted into the medium, and converts the yellow CPRG substrate into a red product, which can be quantified at 570 nm. Quantities of this red product correlate with the liberation of β-galactosidase, which is increased when an agonistic effect is present, while it is decreased when the test compound exerts an antagonistic effect. For the agonistic and antagonistic assays, nandrolone (1) and flutamide were used as reference agents, respectively.

As for `C[C@]12CC[C@H]3[C@@H](CCC4=CC(=O)CC[C@@H]43)[C@@H]1CC[C@H]2Cl` [Compound 3], in experiment [1], the androgen antagonistic activity entry was “no antagonistic activity”. Further, the EC50 in experiment [2] is 3.8 µM.

Source of the values: publication PMC6072853 (Frontiers in Pharmacology, 2018).
